These results are taken from patent publication US12329788B2, “Synbiotic compositions” (Evonik Operations GmbH, priority 2018, dated 2025).

Assay [1] concerns Clostridium XIVa cluster. Nature of the assay: i-screen microbiota composition by 16S rRNA V4 sequencing, Clostridium XIVa. The following applies: 24 h SIEM, amino acids 3.5 mM, dipeptides 7 mM. The class given is cell-based, human. The source says:
(§1) To determine the effect of the probiotic strains Bacillus subtilis DSM 32315, Bacillus subtilis DSM 32540, Bacillus licheniformis DSM 32314 and Bacillus amyloliquefaciens CECT 5940 on adult colonic microbiota, an intestinal screening model was used (i-screen, TNO, the Netherlands). Therefore the i-screen model was inoculated with standard human adult fecal microbiota material, which consisted of pooled fecal donations from 6 healthy adult volunteers (Caucasian, European lifestyle and nutrition). The fecal material was mixed and grown in a fed-batch fermenter for 40 hours to create a standardized microbiota as described previously. These standard adult gut microbiota sets were stored at −80° C. in 12% glycerol.
(§2) The intestinal microbiota was cultured in vitro in modified standard ileal efflux medium (SIEM), the composition of which was described by and modified as follows: 0.047 g/l pectin, 0.047 g/l xylan, 0.047 g/l arabinogalactan, 0.047 g/l amylopectin, 0.392 g/l starch, 24.0 g/l casein, 24.0 Bacto pepton, 0.4 ox-bile and 0.2 g/l cysteine. All components were supplied by Trititium Microbiology (Veldhoven, The Netherlands). The pH of the medium was adjusted to 5.8.
(§3) For the i-screen fermentations, the precultured standardized fecal inoculum was diluted 50 times in 1350 μl modified SIEM. All experiments have been carried out in triplicates. The strains Bacillus subtilis (DSM 32315), Bacillus subtilis DSM 32540, Bacillus licheniformis DSM 32314 and Bacillus amyloliquefaciens CECT 5940 were precultured separately in 50 ml LBKelly medium, for about 16 h. Incubation was done in shaking flasks at 37° C. under aerobic conditions. After incubation, bacterial density was determined by optical density measurement at 600 nm. A final stock solution of 1×10^10 cells/ml was prepared in 1 ml buffer solution (0.1 mM MES pH 6). The suspension of each strain was introduced into the i-screen to a final level of about 10^9 cells/ml, respectively
The i-screen incubation was performed under following gas conditions: 0.2% O2, 0.2% CO2, 10% H2, 89.6% N2.
(§4) DNA extraction for the sequencing of 16S rRNA coding genes was performed as described by Ladirat et al. (2013) with some minor modifications. Approximately 100 μl of the culture materials were added to the wells of a 96 well plate containing per well 300 μl of lysis buffer (Mag Mini DNA Isolation Kit, LGC ltd, UK), 500 μl zirconium beads (0.1 mm; BioSpec products, Bartlesville, OK, USA) and 500 μl of phenol saturated with Tris-HCI (pH 8.0; Carl Roth GMBH, Germany). The 96 well plate was placed in a Mini-BeadBeater-96 (BioSpec products, Bartlesville, Okla, USA) for 2 min at 2100 oscillations/min. DNA was subsequently purified using the Agowa Mag Mini DNA Isolation Kit according to the manufacturer recommendations. Extracted DNA was eluted in a final volume of 60 μl buffer.
(§5) The microbiota composition was analyzed by 16S rRNA gene amplicon sequencing of the V4 Hypervariable Region. This was Achieved Through a Series of Steps:
(§6) Subsequently, PCR amplicons of the V4 hypervariable region of the 16S rRNA gene were generated for the individual samples by amplification of […] of DNA as described by (2013), using F515/R806 primers. Primers included Illumina adapters and a unique 8-nt sample index sequence key. A mock control was included for technical quality control. The amount of amplified DNA per sample was quantified using the dsDNA 910 Reagent Kit on the Fragment Analyzer (Advanced Analytical). The amplicon libraries were pooled in equimolar amounts and purified from 1,2% agarose gel using the Gel Extraction Kit (Qiagen). The Library was quantified using the Quant-iT™ PicoGreen® dsDNA Assay Kit (Thermo Fisher Scientific). Paired-end sequencing of amplicons was conducted on the Illumina MiSeq platform (Illumina, Eindhoven, The Netherlands).
(§7) The sequence data was processed with Mothur v.1.36.1 [26] in line with the mothur MiSeq SOP [24].

The test system of assay [2] is Clostridium XI cluster. The assay can be described thus: i-screen microbiota composition by 16S rRNA V4 sequencing, Clostridium XI. The class given is cell-based, human. The following applies: for effect on Clostridia XI group: Example 8, dipeptides 7 mM, 0% O2; for Clostridium_XI relative abundance: 24 h SIEM, amino acids 3.5 mM, dipeptides 7 mM.
Text: as §1, §2
as §3, with “The suspension of each strain was introduced into the i-screen to a final level of about 10^9 cells/ml, respectively” left out
as §4, §5, §6, §7

Setting [3] is: microbiota + CECT 5940 (first group so headed, r13-r15).
Where [4] appears, read: microbiota + CECT 5940 (second group so headed, r16-r18).

Where a SMILES comes first, the peptide text is derived from it.

Regarding `C[C@H](N)C(=O)N[C@@H](CCC(N)=O)C(=O)O` [Ala-Gln, Alanine-Glutamine] (H-Ala-Gln-OH), the Clostridium_XIVa relative abundance in assay [1] (setting [3]) amounted to 10%; in assay [1] (setting [4]), 6%; in assay [1] (microbiota + DSM 32315) it was 4%; in assay [1] (microbiota, no probiotic cells) it was 2%. Moreover, the “effect on Clostridia XI group” value in assay [2] is on record as “reduced the Clostridia XI group almost completely”. Moreover, the Clostridium_XI relative abundance in assay [2] (setting [3]) is given as 0%; in assay [2] (setting [4]) it was 0%; in assay [2] (microbiota + DSM 32315), 0%; in assay [2] (microbiota, no probiotic cells), 0%.

For the molecule `NCC(=O)O.N[C@@H](CCC(=O)O)C(=O)O` [Gly-Glu, Glycine-Glutamic acid], the Clostridium_XIVa relative abundance in assay [1] (setting [3]) was 9%; in assay [1] (setting [4]) it was 10%; in assay [1] (microbiota + DSM 32315) it was 8%; in assay [1] (microbiota, no probiotic cells) it was 4%. Besides, in assay [2], the “effect on Clostridia XI group” value is given as “reduced the Clostridia XI group almost completely”. Moreover, the Clostridium_XI relative abundance in assay [2] (setting [3]) was 0%; in assay [2] (setting [4]) it was 0%; in assay [2] (microbiota + DSM 32315), 0%; in assay [2] (microbiota, no probiotic cells), 0%.

For the molecule `CC(=O)N[C@@H](C)C(=O)N[C@@H](CCC(N)=O)C(=O)O` [Ac-Ala-Gln] (Ac-Ala-Gln-OH), the Clostridium_XIVa relative abundance is listed as 1% in assay [1] (setting [3]); 4% in assay [1] (setting [4]); 2% in assay [1] (microbiota + DSM 32315); 1% in assay [1] (microbiota, no probiotic cells). Moreover, the Clostridium_XI relative abundance is reported as 21% in assay [2] (setting [3]); 20% in assay [2] (setting [4]); 31% in assay [2] (microbiota + DSM 32315); 27% in assay [2] (microbiota, no probiotic cells).

`NC(=O)CC[C@H](N)C(=O)O` [Gln, glutamine, reference compound]: the Clostridium_XIVa relative abundance in assay [1] (setting [3]) was 1%; in assay [1] (setting [4]), 9%; in assay [1] (microbiota + DSM 32315), 2%; in assay [1] (microbiota, no probiotic cells) it was 1%. The Clostridium_XI relative abundance in assay [2] (setting [3]) came out at 20%; in assay [2] (setting [4]) it was 21%; in assay [2] (microbiota + DSM 32315), 24%; in assay [2] (microbiota, no probiotic cells), 28%.

As to `N[C@@H](CCC(=O)O)C(=O)O` [Glu, glutamic acid, reference compound], the Clostridium_XIVa relative abundance in assay [1] (setting [3]) is on record as 1%; in assay [1] (setting [4]), 1%; in assay [1] (microbiota + DSM 32315) it was 3%; in assay [1] (microbiota, no probiotic cells), 1%. Also, the Clostridium_XI relative abundance is given as 26% in assay [2] (setting [3]); 18% in assay [2] (setting [4]); 25% in assay [2] (microbiota + DSM 32315); 27% in assay [2] (microbiota, no probiotic cells).
